# In patent publication US20150157588A1, “Pharmaceutical Composition Comprising Amino-Phenyl-Acetic Acid Octadec-(Z)-9-enyl Ester and Use Thereof for Treating Tumors” (Yeda Research and Development Co., Ltd., priority 2012, published 2015):
# Test system: anti-CD3-activated T cells
# Assay: Microarray gene expression, T cells activated by anti-CD3 antibody
# Format: cell-based, human
# Conditions: for Fold change CCL7: 208075_s_at; for Fold change INDO: 210029_at; for Fold change RSAD2: 213797_at; for Fold change LYZ /// RFK: 213975_s_at; for Fold change CCL8: 214038_at; for Fold change CXCL5: 215101_s_at; for Fold change ANKRD12: 216563_at; for Fold change CCL2: 216598_s_at; for Fold change HIG2: 218507_at; for Fold change C1orf165: 219670_at; for Fold change IL1F9: 220322_at; for Fold change IL22: 221165_s_at; for Fold change PDE3B: 222330_at
# Protocol: CD3 positive T cells were extracted from a healthy donor according to a standard protocol, and seeded in T cell medium including RPMI, 10% fetal calf serum, sodium pyruvate, L-Glutamine, and Penicillin/Streptomycin. Following an overnight incubation with medium, the cells were treated by incubating for 2 hours at 37° C. with amino-phenyl-acetic acid octadec-(Z)-9-enyl ester at a concentration of 10 micrograms/ml in a final volume of 10 ml in T-cell medium with or without 0.05% ethanol. After incubation, half the cells from each treatment were centrifuged and 2 ml of Tri-reagent (Sigma) were added to the pellet. The other half of the cells from each treatment were transferred to anti-CD3 antibody coated 24 well plates for an overnight incubation at 37° C. Coating plates with an anti-CD3 antibody was carried out by incubating with 2 micrograms/ml of OKT3 anti-CD3 antibody overnight at 4° C., washing three times with PBS and blocking with filtered 1% Bovine Serum Albumin for 1 hour. After activation with anti-CD3 antibody, cells were centrifuged and 2 ml of Tri-reagent were added to the pellet.
# RNA was extracted from unstimulated cells and from cells activated with anti-CD3 according to standard protocols and used for hybridization with a Human Genome U133A 2.0 (Affymetrix, Catalogue number 900468), according to the manufacturer's instructions. The results of the hybridization were read by a GeneChip scanner 3000 (Affymetrix) and analyzed by QuantArray (GSI lumonics).
# The effects of amino-phenyl-acetic acid octadec-(Z)-9-enyl ester in ethanol solution or in an aqueous vehicle (hereinafter termed “in PBS”) on gene expression in unstimulated T cells and T cells activated by anti-CD3 antibody were compared by microarray analysis.
# [1] = anti-CD3-activated T cells, in ethanol solution vs in PBS
# [2] = anti-CD3-activated T cells, in ethanol solution vs untreated
# [3] = anti-CD3-activated T cells, in PBS vs untreated
smiles,measurement,setting,value
CCCCCCCC/C=C\CCCCCCCCOC(=O)C(N)c1ccccc1 (centres unmarked) [amino-phenyl-acetic acid octadec-(Z)-9-enyl ester],Fold change CCL7,[1],2.01
same,Fold change CCL7,[2],1.991
same,Fold change NTRK1,"208605_s_at, anti-CD3-activated T cells, in ethanol solution vs untreated",2.03
same,Fold change TFPI2,"209277_at, anti-CD3-activated T cells, in ethanol solution vs in PBS",2.53
same,Fold change TFPI2,"209277_at, anti-CD3-activated T cells, in ethanol solution vs untreated",3.32
same,Fold change TFPI2,"209278_s_at, anti-CD3-activated T cells, in ethanol solution vs in PBS",2.99
same,Fold change TFPI2,"209278_s_at, anti-CD3-activated T cells, in ethanol solution vs untreated",3.87
same,Fold change CHI3L1,"209395_at, anti-CD3-activated T cells, in ethanol solution vs in PBS",2.69
same,Fold change CHI3L1,"209395_at, anti-CD3-activated T cells, in ethanol solution vs untreated",3.40
same,Fold change CHI3L1,"209396_s_at, anti-CD3-activated T cells, in ethanol solution vs in PBS",2.15
same,Fold change CHI3L1,"209396_s_at, anti-CD3-activated T cells, in ethanol solution vs untreated",2.58
same,Fold change INDO,[1],2.08
same,Fold change INDO,[2],2.47
same,Fold Change SPAG1,"210117_at, anti-CD3-activated T cells, in ethanol solution vs in PBS",−1.90
same,Fold change IL1A,"210118_s_at, anti-CD3-activated T cells, in ethanol solution vs untreated",2.02
same,Fold change PLA2G4A,"210145_at, anti-CD3-activated T cells, in ethanol solution vs untreated",2.00
same,Fold Change LY9,"210370_s_at, anti-CD3-activated T cells, in ethanol solution vs in PBS",2.25
same,Fold change INHBA,"210511_s_at, anti-CD3-activated T cells, in ethanol solution vs untreated",1.96
same,Fold change FPRL1,"210772_at, anti-CD3-activated T cells, in ethanol solution vs untreated",2.00
same,Fold change PLAUR,"210845_s_at, anti-CD3-activated T cells, in ethanol solution vs in PBS",2.01
same,Fold change PLAUR,"210845_s_at, anti-CD3-activated T cells, in ethanol solution vs untreated",2.02
same,Fold change LYST,"210943_s_at, anti-CD3-activated T cells, in ethanol solution vs untreated",2.45
same,Fold change SERPINA1,"211429_s_at, anti-CD3-activated T cells, in ethanol solution vs untreated",2.06
same,Fold change IL8,"211506_s_at, anti-CD3-activated T cells, in ethanol solution vs untreated",2.69
same,Fold change PLAUR,"211924_s_at, anti-CD3-activated T cells, in ethanol solution vs untreated",1.91
same,Fold Change MCM4,"212141_at, anti-CD3-activated T cells, in ethanol solution vs in PBS",−1.98
same,Fold Change MCM4,"212142_at, anti-CD3-activated T cells, in ethanol solution vs in PBS",−2.80
same,Fold change IL1RN,"212657_s_at, anti-CD3-activated T cells, in ethanol solution vs untreated",1.98
same,Fold change IL1RN,"212659_s_at, anti-CD3-activated T cells, in ethanol solution vs untreated",1.90
same,Fold change RSAD2,[1],3.11
same,Fold change RSAD2,[2],2.28
same,Fold change LYZ /// RFK,[1],2.02
same,Fold change LYZ /// RFK,[2],2.00
same,Fold change CCL8,[1],2.33
same,Fold change CCL8,[2],2.23
same,Fold change CXCL5,[3],1.995
same,Fold change CXCL5,[2],2.31
same,Fold change SOD2,"215223_s_at, anti-CD3-activated T cells, in ethanol solution vs untreated",1.95
same,Fold change SNX9,"215284_at, anti-CD3-activated T cells, in ethanol solution vs untreated",2.44
same,Fold change LYST,"215415_s_at, anti-CD3-activated T cells, in ethanol solution vs untreated",2.09
same,Fold Change LY9,"215967_s_at, anti-CD3-activated T cells, in ethanol solution vs in PBS",2.05
same,Fold Change LY9,"215967_s_at, anti-CD3-activated T cells, in ethanol solution vs untreated",2.2
same,Fold change IL1RN,"216243_s_at, anti-CD3-activated T cells, in ethanol solution vs untreated",1.99
same,Fold change ANKRD12,[3],1.94
same,Fold change ANKRD12,[2],2.48
same,Fold change probeset 216575_at,[1],2.69
same,Fold change probeset 216575_at,[2],2.31
same,Fold change CCL2,[1],5.27
same,Fold change CCL2,[2],5.00
same,Fold change SLC7A11,"217678_at, anti-CD3-activated T cells, in ethanol solution vs untreated",1.92
same,Fold Change TNS3,"217853_at, anti-CD3-activated T cells, in ethanol solution vs in PBS",2.00
same,Fold change FLJ20273,"218035_s_at, anti-CD3-activated T cells, in ethanol solution vs untreated",2.17
same,Fold change HIG2,[1],−2.31
same,Fold change HIG2,[2],−2.17
same,Fold Change DTL,"218585_s_at, anti-CD3-activated T cells, in ethanol solution vs in PBS",−1.93
same,Fold change ANKRD11,"219437_s_at, anti-CD3-activated T cells, in ethanol solution vs untreated",2.84
same,Fold change C1orf165,[1],−2.22
same,Fold change C1orf165,[2],−2.29
same,Fold change IL1F9,[1],2.74
same,Fold change IL1F9,[2],3.10
same,Fold change MCM10,"220651_s_at, anti-CD3-activated T cells, in ethanol solution vs untreated",−2.05
same,Fold change IL22,[1],−3.03
same,Fold change IL22,[2],−2.63
same,Fold Change BNIP3L,"221478_at, anti-CD3-activated T cells, in ethanol solution vs in PBS",−2.45
same,Fold Change BNIP3L,"221478_at, anti-CD3-activated T cells, in ethanol solution vs untreated",−2.28
same,Fold Change BNIP3L,"221479_s_at, anti-CD3-activated T cells, in ethanol solution vs in PBS",−2.00
same,Fold Change GINS2,"221521_s_at, anti-CD3-activated T cells, in ethanol solution vs in PBS",−1.99
same,Fold change GRSF1,"221917_s_at, anti-CD3-activated T cells, in PBS vs untreated",1.92
same,Fold change PDE3B,[1],1.99
same,Fold change PDE3B,[2],1.97
same,down-regulated genes,"activated T cells, in PBS vs untreated",no down-regulated genes
